This note sets out measurements from ChEMBL document CHEMBL4428037 (J Med Chem, 2016).

Activity calls are given as the source filed them. The calls are words filed in the database; no cut-off is given here.

The subject of data set [1] is A549. The data set is described as follows: Induction of apoptosis in human A549 cells assessed as increase in PARP cleavage level incubated for 24 hrs by Western blotting. It counts as functional, cell-based.
For data set [2], the system named is A549. The data set can be described thus: Reduction in p-cdc2 expression in human A549 cells incubated for 24 hrs by Western blotting. The class given is functional, cell-based.
Data set [3] deals with A549. The data set is described as follows: Induction of cell cycle arrest in human A549 cells assessed as accumulation at G2/M phase incubated for 24 hrs by propidium iodide staining based FACS flow cytometry. The class given is functional.
Data set [4] has as its system A549. The data set is described as follows: Induction of apoptosis in human A549 cells assessed as live cells level at 10 nM incubated for 24 hrs by Annexin V-FITC/PI staining based FACS flow cytometry (reference value: 96.83%). It counts as functional.
Data set [5] has as its system NCI-H460. The data set is described as follows: Growth inhibition of human NCI-H460 cells incubated for 48 hrs by MTT assay. It counts as functional, cell-based. The settings on record: NCI-H460, 48 h.
Data set [6] deals with T1, Tubulin (Sus scrofa) (UniProt P02554+P02550). The data set is described as follows: Displacement of [3H]colchicine from biotinylated porcine tubulin at 1 uM incubated for 2 hrs by competition scintillation proximity. It counts as protein assay.
Data set [7] has as its system A549. The data set can be described thus: Induction of apoptosis in human A549 cells assessed as induction of cell shrinkage at 40 nM incubated for 24 hrs microscopy. It counts as functional, cell-based.
Data set [8] deals with NCI-H460. The data set is described as follows: Inhibition of colony formation in human NCI-H460 cells incubated for 9 days by crystal violet staining based assay. The class given is functional, cell-based.
Data set [9] has as its system HUVEC. The data set is described as follows: Inhibition of capillary tube formation in HUVEC assessed as reduction in tube-like structures formation at 10 nM incubated for 8 hrs by fluorescence microscopy based 3D-matrigel assay. The class given is functional. The conditions noted are these: Homo sapiens.
Data set [10] deals with MCF7. The data set is described as follows: cells. The conditions noted are these: Homo sapiens, MCF7, 72 h.
In data set [11] the target is T1, Tubulin (Sus scrofa). The data set is described as follows: (§1) Inhibition of porcine brain tubulin polymerization incubated for 60 mins by fluorescence-based assay.
In data set [12] the target is Tubulin (Sus scrofa, UniProt P02554+P02550). The description is as §1.
Data set [13] relates to HUVEC. The data set can be described thus: Toxicity in HUVEC assessed as effect on cell proliferation at 10 to 40 nM incubated for 8 hrs. The class given is cell-based. The settings on record: human, 0.04 µM.
Data set [14] has as its system A549. The data set can be described thus: Induction of apoptosis in human A549 cells assessed as live cells level at 20 nM incubated for 24 hrs by Annexin V-FITC/PI staining based FACS flow cytometry (reference value: 96.83%). It counts as functional.
For data set [15], the system named is A549. The data set can be described thus: Induction of apoptosis in human A549 cells assessed as early apoptotic cells level at 40 nM incubated for 24 hrs by Annexin V-FITC/PI staining based FACS flow cytometry (reference value: 0.65%). It counts as functional.

For the molecule `CCOc1cccc(Nc2nn(C)c3c2Cc2cc(OCC)c(OCC(N)=O)cc2-3)c1`, the Activity result in data set [1] was “Dose-dependent effect”; in [2], “Dose-dependent effect”; in [3] it was “Dose-dependent effect”; in [4] it was 95.66%; in [13], “Non-Toxic”; in data set [14], 90.81%. Besides, in [15], the Activity is on record as 9.06%. Besides, the concentration for half-maximal inhibition (IC50) in [5] came out at 37.3 nM; in data set [10], 32.3 nM; in [12] it was 4620 nM. For the same molecule, the inhibition is 37% in [6], “Dose-dependent effect” in data set [8] and “Dose-dependent effect” in data set [11]. Besides, the result in data set [7] was Active. For the same molecule, in data set [9], the inhibition at 0.01 µM stood at 39%.
